# Data reported in patent US9133179B2, “2-methoxy-pyridin-4-yl-derivatives” (Actelion Pharmaceuticals Ltd., priority 2011, dated 2015).
# Experiments:
# [1] = biological target: T1, human S1P1 (EDG1) receptor (Homo sapiens, UniProt P21453); experiment: S1P1 β-arrestin recruitment (Tango) assay to determine EC50 values; assay type: cell-based; conditions: Tango-EDG1 bla U2OS cells, 16 h incubation
# T1 construct: host or cells: U2OS (Tango EDG1-bla U2OS)
# Excerpt: S1P1 β-Arrestin Recruitment (Tango) Assay to Determine EC50 Values
# Upon ligand activation, G protein-coupled receptors (GPCR) trigger two pathways that independently transduce signals to the cell: one through heterotrimeric GTP-binding proteins (G proteins) and one through β-arrestins. Agonist-induced GPCRs recruit β-arrestin proteins, which then bind to the carboxy-terminal domain of ligand-activated GPCRs. The amount of β-arrestin recruitment can be used to assess the potency and efficacy of GPCR activating ligands.
# To measure the potency and efficacy of compounds as S1P1 (EDG1) receptor agonists, Tango™-EDG1 bla U2OS cells (Invitrogen, USA, Catalog #K1520) are used. The Tango™ GPCR technology is based on GeneBLAzer β-lactamase reporter cell assays, which uses a mammalian-optimized β-lactamase reporter gene (bla) combined with a FRET-enabled substrate. The host cells, U2OS, stably express a human S1P1 (EDG1) receptor/transcription factor (TF) fusion protein. The cells also express a recombinant protease tagged β-arrestin protein, which is recruited to the S1P1 receptor upon ligand stimulation and specifically cleaves the S1P1-TF fusion protein. The released TF activates the β-lactamase (bla) reporter gene. To measure the reporter gene activity, cells are loaded with a fluorescent substrate containing two chemically coupled fluorophores, coumarin and fluorescein. […] In the presence of bla, the chemical bond is cleaved and FRET is inhibited. […] The amount of β-arrestin recruitment is proportional to the increase in blue fluorescence.
# Tango™-EDG1 bla U2OS cells are cultivated in McCoy's 5A containing 10% dialyzed FBS, 0.1 mM NEAA, 25 mM HEPES, 1 mM sodium pyruvate, 1% Penicillin/Streptomycin, 200 μg/ml zeocin, 50 μg/ml hygromycin and 100 μg/ml geneticin (Invitrogen, USA). Cells are detached with trypsin, resuspended in medium and then counted.
# Compounds (10 mM stock in DMSO) are diluted first in DMSO. The pre-diluted compounds solutions are then transferred into Assay Medium/0.1% fatty acid free BSA to reach a fourfold concentrated compound stock, which is applied to the cells to reach the final compound concentrations that range from 10 μM to 0.0005 nM (0.5% final DMSO). Cells are then incubated for 16 h at 37° C. and 5% CO2.
# [2] = test system: rat trachea rings; experiment: Measurement of isometric force development: constriction of rat trachea rings; conditions: for activation at 0.1 µM / activation at 1 µM: Rattus norvegicus; for activation at 0.1 µM: read-out: % trachea constriction at 0.1 μM; for activation at 1 µM: read-out: % trachea constriction at 1 μM
# Protocol: Measurement of Isometric Force Development
# Female Wistar rats are euthanized by exposure to CO2. The tracheae are excised and rings from the lower segments are prepared. […] A resting force of 2 g (20 mN) is applied to the ring preparation, and changes in force generation are measured using an isometric force recorder (EMKA Technologies Inc., Paris, France). Viability of rings is assessed by exposure to a depolarizing concentration of KCl (50 mM). Contraction of trachea is expressed as a percentage of the response to KCl.
# The compounds are prepared as stock solutions of 0.3 mM in pure DMSO.
# [3] = test system: circulating lymphocytes; experiment: Assessment of in vivo efficacy: circulating lymphocytes after oral administration to Wistar rats; design: species or system rat; conditions: Rattus norvegicus, Lymphocyte, normotensive male Wistar rats, compared to vehicle group, read-out: Lymphocyte counts; for change in vivo at 10 mg/kg: 6 h after oral administration of 10 mg/kg
# Protocol: Assessment of In Vivo Efficacy
# The efficacy of the compounds of Formula (I) is assessed by measuring the circulating lymphocytes after oral administration of 3 to 30 mg/kg of a compound of Formula (I) to normotensive male Wistar rats. The animals are housed in climate-controlled conditions with a 12 h-light/dark cycle, and have free access to normal rat chow and drinking water. […] Full blood is subjected to hematology using Advia Hematology system (Bayer Diagnostics, Zurich, Switzerland).
# All data are presented as mean±SEM. Statistical analyses are performed by analysis of variance (ANOVA) using Statistica (StatSoft) and the Student-Newman-Keuls procedure for multiple comparisons. The null hypothesis is rejected when p<0.05.
# [4] = in % of the constriction induced by 50 mM KCl
# T1 sequence (P21453 whole entry): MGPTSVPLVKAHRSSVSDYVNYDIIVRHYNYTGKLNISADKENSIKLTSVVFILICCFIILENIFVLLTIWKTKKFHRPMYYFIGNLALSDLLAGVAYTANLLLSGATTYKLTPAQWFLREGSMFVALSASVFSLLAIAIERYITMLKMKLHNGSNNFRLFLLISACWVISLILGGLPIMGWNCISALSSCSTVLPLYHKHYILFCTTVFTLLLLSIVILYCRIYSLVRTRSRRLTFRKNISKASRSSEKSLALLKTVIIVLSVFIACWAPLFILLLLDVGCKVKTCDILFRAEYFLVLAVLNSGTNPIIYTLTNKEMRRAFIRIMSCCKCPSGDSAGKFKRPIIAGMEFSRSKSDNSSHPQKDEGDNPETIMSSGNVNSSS
Structure (SMILES),EC50 [1],change in vivo at 10 mg/kg [3],other results
CCc1cc(-c2noc(-c3cc(OC)nc(C4CCCC4)c3)n2)cc(C)c1OC[C@@H](O)CNC(CO)CO [Example 4],6.6 nM,-65%,"% trachea constriction at 3 μM ([2]; 3 μM, in % of the constriction induced by 50 mM KCl): <5%; % trachea constriction at 10 μM ([2]; 10 μM, in % of the constriction induced by 50 mM KCl): <5%; % trachea constriction at 30 μM ([2]; 30 μM, in % of the constriction induced by 50 mM KCl): <5%; activation at 1 µM [2]: < 5%"
"CCc1cc(-c2noc(-c3cc(OC)nc(C4CCCC4)c3)n2)cc(C)c1OCCNCC(=O)O [Example 7, 2-((2-(4-(5-(2-Cyclopentyl-6-methoxypyridin-4-yl)-1,2,4-oxadiazol-3-yl)-2-ethyl-6-methylphenoxy)ethyl)amino)acetic acid]",1.5 nM,-70%,"% trachea constriction at 10 nM [2, 4]: <5%; % trachea constriction at 0.3 μM [2, 4]: <5%; activation at 0.1 µM [2]: < 5%; activation at 1 µM [2]: 68%; concentration at which significant (or full) rat trachea constriction is shown ([2]; rat trachea rings): 1000 nM"
"CCc1cc(-c2noc(-c3cc(OC)nc(C4CCCC4)c3)n2)cc(C)c1OCCCN(C)C(=O)CCC(=O)O [Example 34, 4-((3-(4-(5-(2-Cyclopentyl-6-methoxypyridin-4-yl)-1,2,4-oxadiazol-3-yl)-2-ethyl-6-methylphenoxy)propyl)(methyl)amino)-4-oxobutanoic acid]",0.515 nM,-66%,
"CCc1cc(-c2noc(-c3cc(OC)nc(C4CCCC4)c3)n2)cc(C)c1OC[C@@H](O)CNC(=O)CCC(=O)O [Example 15, (S)-4-((3-(4-(5-(2-Cyclopentyl-6-methoxypyridin-4-yl)-1,2,4-oxadiazol-3-yl)-2-ethyl-6-methylphenoxy)-2-hydroxypropyl)amino)-4-oxobutanoic acid]",0.02 nM,-55%,
"CCc1cc(-c2noc(-c3cc(OC)nc(C4CCCC4)c3)n2)cc(C)c1OCCCNC(=O)CC(=O)O [Example 31, 3-((3-(4-(5-(2-Cyclopentyl-6-methoxypyridin-4-yl)-1,2,4-oxadiazol-3-yl)-2-ethyl-6-methylphenoxy)propyl)amino)-3-oxopropanoic acid]",0.0716 nM,-68%,
"CCc1cc(-c2noc(-c3cc(OC)nc(C4CCCC4)c3)n2)cc(C)c1OCCNCCCC(=O)O [Example 39, 4-((2-(4-(5-(2-Cyclopentyl-6-methoxypyridin-4-yl)-1,2,4-oxadiazol-3-yl)-2-ethyl-6-methylphenoxy)ethyl)amino)butanoic acid]",0.1 nM,-66%,
CCc1cc(-c2noc(-c3cc(OC)nc(C4CCCC4)c3)n2)cc(C)c1OC[C@@H](O)CNCCC(=O)O [Example 10],0.06 nM,-51%,
"COc1cc(-c2nc(-c3cc(C)c(OCCN4CC(C(=O)O)C4)c(Cl)c3)no2)cc(C2CCCC2)n1 [Example 44, 1-(2-(2-Chloro-4-(5-(2-cyclopentyl-6-methoxypyridin-4-yl)-1,2,4-oxadiazol-3-yl)-6-methylphenoxy)ethyl)azetidine-3-carboxylic acid]",0.1 nM,-62%,
"CCc1cc(-c2nnc(-c3cc(OC)nc(C4CCCC4)c3)o2)cc(C)c1OCCNCCC(=O)O [Example 62, 3-((2-(4-(5-(2-Cyclopentyl-6-methoxypyridin-4-yl)-1,3,4-oxadiazol-2-yl)-2-ethyl-6-methylphenoxy)ethyl)amino)propanoic acid]",0.2 nM,-63%,
"CCc1cc(-c2nc(-c3cc(OC)nc(C4CCCC4)c3)no2)cc(C)c1OCCNCCC(=O)O [Example 57, 3-((2-(4-(3-(2-Cyclopentyl-6-methoxypyridin-4-yl)-1,2,4-oxadiazol-5-yl)-2-ethyl-6-methylphenoxy)ethyl)amino)propanoic acid]",0.05 nM,-74%,
"CCc1cc(-c2noc(-c3cc(OC)nc(C4CCCC4)c3)n2)cc(C)c1OCCCN(C)CC(=O)O [Example 20, 2-((3-(4-(5-(2-Cyclopentyl-6-methoxypyridin-4-yl)-1,2,4-oxadiazol-3-yl)-2-ethyl-6-methylphenoxy)propyl)(methyl)amino)acetic acid]",1.5 nM,-57%,

# More lines, in order of falling EC50 [1], values ahead:
EC50 [1],Structure (SMILES),change in vivo at 10 mg/kg [3],other results
7.2 nM,"CCc1cc(-c2nnc(-c3cc(OC)nc(C4CCCC4)c3)o2)cc(C)c1OCC(=O)O [Example 60, 2-(4-(5-(2-Cyclopentyl-6-methoxypyridin-4-yl)-1,3,4-oxadiazol-2-yl)-2-ethyl-6-methylphenoxy)acetic acid]",-35%,
1.2 nM,"CCc1cc(-c2nc(-c3cc(OC)nc(C4CCCC4)c3)no2)cc(C)c1OCC(=O)O [Example 53, 2-(4-(3-(2-Cyclopentyl-6-methoxypyridin-4-yl)-1,2,4-oxadiazol-5-yl)-2-ethyl-6-methylphenoxy)acetic acid]",-72%,
1.1 nM,"CCc1cc(-c2nnc(-c3cc(OC)nc(C4CCCC4)c3)o2)cc(C)c1OCCN1CC(C(=O)O)C1 [Example 63, 1-(2-(4-(5-(2-Cyclopentyl-6-methoxypyridin-4-yl)-1,3,4-oxadiazol-2-yl)-2-ethyl-6-methylphenoxy)ethyl)azetidine-3-carboxylic acid]",-71%,
0.4 nM,"CCc1cc(-c2noc(-c3cc(OC)nc(C4CCCC4)c3)n2)cc(C)c1OCCN1CC(C(=O)O)C1 [Example 2, 1-(2-(4-(5-(2-Cyclopentyl-6-methoxypyridin-4-yl)-1,2,4-oxadiazol-3-yl)-2-ethyl-6-methylphenoxy)ethyl)azetidine-3-carboxylic acid]",-70%,"% trachea constriction at 10 nM [2, 4]: <5%; % trachea constriction at 30 nM [2, 4]: <5%; % trachea constriction at 0.3 μM [2, 4]: 55%; activation at 0.1 µM [2]: < 5%; activation at 1 µM [2]: 93%"
0.3 nM,"CCc1cc(-c2noc(-c3cc(OC)nc(C4CCCC4)c3)n2)cc(C)c1OCCCNCC(=O)O [Example 18, 2-((3-(4-(5-(2-Cyclopentyl-6-methoxypyridin-4-yl)-1,2,4-oxadiazol-3-yl)-2-ethyl-6-methylphenoxy)propyl)amino)acetic acid]",-24%,
0.265 nM,"CCc1cc(-c2noc(-c3cc(OC)nc(C4CCCC4)c3)n2)cc(C)c1OCCCNC(=O)CO [Example 29, N-(3-(4-(5-(2-Cyclopentyl-6-methoxypyridin-4-yl)-1,2,4-oxadiazol-3-yl)-2-ethyl-6-methylphenoxy)propyl)-2-hydroxyacetamide]",-76%,
0.2 nM,"CCc1cc(-c2noc(-c3cc(OC)nc(C4CCCC4)c3)n2)cc(C)c1OCCCC(=O)O [Example 6, 4-(4-(5-(2-Cyclopentyl-6-methoxypyridin-4-yl)-1,2,4-oxadiazol-3-yl)-2-ethyl-6-methylphenoxy)butanoic acid]",-53%,"% trachea constriction at 10 nM [2, 4]: <5%; % trachea constriction at 30 nM [2, 4]: <5%; % trachea constriction at 0.3 μM [2, 4]: 91%; activation at 0.1 µM [2]: < 5%; activation at 1 µM [2]: 110%; concentration at which significant (or KCl-comparable) rat trachea constriction is shown ([2]; rat trachea rings): 300 nM"
0.1 nM,"COc1cc(-c2nc(-c3cc(C)c(OCCNCCC(=O)O)c(Cl)c3)no2)cc(C2CCCC2)n1 [Example 43, 3-((2-(2-Chloro-4-(5-(2-cyclopentyl-6-methoxypyridin-4-yl)-1,2,4-oxadiazol-3-yl)-6-methylphenoxy)ethyl)amino)propanoic acid]",-62%,
0.05 nM,"CCc1cc(-c2noc(-c3cc(OC)nc(C4CCCC4)c3)n2)cc(C)c1OCCNC(=O)CC(=O)O [Example 49, 3-((2-(4-(5-(2-Cyclopentyl-6-methoxypyridin-4-yl)-1,2,4-oxadiazol-3-yl)-2-ethyl-6-methylphenoxy)ethyl)amino)-3-oxopropanoic acid]",,change in vivo at 3 mg/kg ([3]; 6 h after an oral dose of 3 mg/kg): -49%
